Experiment [1] has as its system ER- MDA-MB-231 cells. The experiment is described as follows: MTT cell viability / proliferation assay, MDA-MB-231. Format: cell-based. Here is the method:
(§1) IC50 and IC25 values for inhibitors is calculated from the linear regression line of the plot of percentage inhibition versus log inhibitor concentration. These IC50 values is used for combination or sequencing studies. The effect of combination or sequence of treatment is determined at IC25 of each agent.
(§2) For a cell proliferation assay, 10^4 cells were plated in a 96 well plate and treated with indicated drugs for 6 days. The medium was replaced after 3 days. On day 7, 500 μg/ml of MTT solution was added to each well and cells incubated for 3 hours. The tetrazolium dye trapped inside the mitochondria of the cells was dissolved in DMSO and the absorbance was measured at 560 nm.

For experiment [2], the system named is SKBr3. The experiment is described as follows: MTT cell proliferation assay, SKBr3. Format: cell-based. To be noted: Her-2 status ++++, read-out: IC50 values for inhibition of ER-cell proliferation, SKBr3. Here is the method: as §1, §2
The subject of experiment [3] is Hs 578T. The experiment is described as follows: MTT cell proliferation assay, Hs 578T. Format: cell-based. Conditions: Her-2 status +, read-out: IC50 values for inhibition of ER-cell proliferation, Hs 578T. Here is the method: MTT assay was performed to measure viability of breast cancer cells after treatment with various test compounds (Sabnis et al. 2005). IC50 and IC25 values for inhibitors is calculated from the linear regression line of the plot of percentage inhibition versus log inhibitor concentration. These IC50 values is used for combination or sequencing studies. The effect of combination or sequence of treatment is determined at IC25 of each agent.
Exemplary ER negative cell lines (MDA-MB-231) were used. For a cell proliferation assay, 10^4 cells were plated in a 96 well plate and treated with indicated drugs for 6 days. The medium was replaced after 3 days. On day 7, 500 μg/ml of MTT solution was added to each well and cells incubated for 3 hours. The tetrazolium dye trapped inside the mitochondria of the cells was dissolved in DMSO and the absorbance was measured at 560 nm.
(In general: Tetrazolium dyes change colour on reduction, which living cells bring about.)

For experiment [4], the system named is aromatase (CYP19). The experiment is described as follows: Western immunoblotting for aromatase protein expression in MDA-MB-231 cells. Format: cell-based. Conditions: 24 hour treatment. The text has this: (§3) Expression of ER and Aromatase proteins was examined by Western blotting. β-actin was used as a loading control.
The subject of experiment [5] is aromatase. Description: Radiometric 3H2O release assay for aromatase activity in MDA-MB-231 cells. Format: cell-based. On the set-up: aromatase activity: dose or concentration left out as unconfirmed. Conditions: for aromatase activity after pre-treatment: MDA-MB-231 cells. How it is done:
The aromatase activity assay was described by Yue et al. (1997). The expression and activation of aromatase was seen after treatment with HDACi. […] This up-regulation of aromatase activity was dose dependent.
150,000 cells were plated in IMEM without PR with 5% steroid free serum, 1% penicillin-streptomycin and 750 μg/ml G418. Next day the cells were incubated with 0.5 μCi of [1β^3H] androstenedione (Specific activity 23.5 Ci/mmole) in 1 ml of media containing 1% charcoal stripped serum for 18 hours. The medium was then collected and treated with TCA (trichloroacetic acid) to precipitate proteins. The residual steroids in the medium were extracted and removed with chloroform and further treated with a 2.5% charcoal suspension. The ^3H2O in the supernatant was measured using a scintillation counter. In this assay ^3H2O is released during conversion of [1β^3H] Δ4A to estrone, catalyzed by the enzyme aromatase. For pre-treatment studies, cells were plated as described above and then next day pre-treated with indicated agent for 24 hours before incubating with [1β^3H] Δ4A for 18 hours. The activity of the enzyme is corrected for protein concentration in the cells plated and treated.

Experiment [6] concerns ERα. The experiment is described as follows: Western immunoblotting for ERα protein expression in MDA-MB-231 cells. Format: cell-based. To be noted: 10 nM.
Text: Protein expression of other ER inducible genes such as c-Myc and PgR can also be examined.
as §3
On the technique in general: Immunoblotting shows a protein as a band on a membrane.

The subject of experiment [7] is aromatase. The experiment is described as follows: 3H2O release assay for aromatase activity in tumor homogenates. Format: in vivo, mice. Conditions: MDA-MB-231 xenograft tumors. How it is done:
(§4) Expression of ER and aromatase proteins was examined by Western blotting. β-actin was used as a loading control. The radiometric ^3H2O release assay for aromatase activity was performed as follows: the tumors were homogenized using ice-cold DPBS and the homogenate was used for the aromatase assay. ^3H2O release assay was performed using [1β^3H] androstenedione (Specific activity 23.5 Ci/mmole). The activity of the enzyme is corrected for protein concentration in the tumor homogenates.

Experiment [8] deals with ERα, aromatase and androgen receptor. The experiment is described as follows: Western blotting of xenograft tumors. Format: in vivo, mice. Conditions: MDA-MB-231 xenograft tumors. Here is the method: as §4
Experiment [9] has as its system MDA-MB-231 xenografts. Description: MDA-MB-231 xenografts in female ovariectomized nude mice. Format: in vivo. How it is done:
The tumors of MDA-MB-231 cells were grown in female ovariectomized nude mice. Sub-confluent cells were collected into Citric Saline, centrifuged and resuspended in Matrigel (10 mg/mL) at ˜2.5×10^7 cells/mL. Each mouse received subcutaneous inoculations in two sites per flank with 100 μL of cell suspension. Mice were then injected subcutaneously daily with 0.3% HPC in 0.9% NaCl (vehicle) until the tumors reached a measurable size (˜150 mm^3). At this point the mice were grouped such that the starting tumor volumes were not statistically different across the groups. The mice were injected with indicated agents (5× weekly) for indicated time. The tumors were measured weekly with calipers and the tumor volumes were calculated using the formula (4/3)πr1^2r2(r1≦r2).

[10] abbreviates: Homo sapiens, MDA-MB-231, Her-2 status −, read-out: IC50 values for inhibition of ER-cell proliferation, MDA-MB-231.

“Also recorded” adds a separate entry of the source. Like-named read-outs stand apart in the source and are kept apart here.

Turning to `N#Cc1ccc(C(c2ccc(C#N)cc2)n2cncn2)cc1` [letrozole], the IC50 in experiment [1] (Homo sapiens, MDA-MB-231, MDA-MB-231 cells, combined with MS-275 (0.1 nM), read-out: IC50 of letrozole for cell growth inhibition) came to 0.0154 µM; in [1] (Homo sapiens, MDA-MB-231, MDA-MB-231 cells, combined with SAHA, read-out: IC50 of letrozole for cell growth inhibition), 1.13 µM. Also, the “cell growth inhibition in combination” value is on record as “synergistically inhibit cell growth in a dose dependent manner” in experiment [1] (MDA-MB-231 cells, letrozole combined with MS-275 (0.1 nM)) and “synergistically inhibit cell growth in a dose dependent manner” in experiment [1] (MDA-MB-231 cells, letrozole combined with SAHA). In [1] (MDA-MB-231 cells, single agent), the growth inhibitory effect result is reported as “refractory; also recorded: did not inhibit growth”.

With `C[C@]12CC[C@@H]3c4ccc(O)cc4C[C@@H](CCCCCCCCC[S+]([O-])CCCC(F)(F)C(F)(F)F)[C@H]3[C@@H]1CC[C@@H]2O` (stereo partly drawn) [fulvestrant], the growth inhibitory effect entry in experiment [1] (MDA-MB-231 cells, single agent) is on record as “refractory”.

Regarding `C=C1C[C@@H]2[C@H](CC[C@]3(C)C(=O)CC[C@@H]23)[C@@]2(C)C=CC(=O)C=C12` [exemestane], the growth inhibitory effect entry in [1] (MDA-MB-231 cells, single agent) is listed as “refractory”.

For the molecule `CCCC(=O)O` [BA, butyric acid], the IC50 in [2] (Homo sapiens, SK-BR-3) is 17.2 µM; in experiment [3] (Homo sapiens, Hs-578T), 67900 µM; in [1] (setting [10]) it was 20300 µM; in [1] (Homo sapiens, MDA-MB-231, MDA-MB-231 cells, single agent, read-out: IC50, inhibition of cell growth), 20300 µM. The “expression of aromatase up-regulated” value in experiment [4] (1 μM) stood at 1.2 fold. In experiment [1] (MDA-MB-231 cells, single agent), the growth inhibitory effect result is recorded as “inhibited”. For the same molecule, in [5], the “aromatase activity after pre-treatment” value was “upregulated”.

Take `CC(C)(C#N)c1cc(Cn2cncn2)cc(C(C)(C)C#N)c1` [anastrozole]: the growth inhibitory effect result in experiment [1] (MDA-MB-231 cells, single agent) was “refractory”.

In the case of `O=C(CCCCCCC(=O)Nc1ccccc1)NO` [SAHA, N′-hydroxy-N-phenyl-octanediamide], the IC50 in experiment [3] (Homo sapiens, Hs-578T) is 0.0169 µM. In experiment [6], the “protein expression of ERα up-regulated” value was found to be 9.9 fold. Further, the “expression of aromatase up-regulated” value in experiment [4] (10 nM) is on record as 1.77 fold. Also, in experiment [5], the “aromatase activity after pre-treatment” value is reported as “upregulated”.

On to “N-(2-aminophenyl)-4-(N-(pyridin-3-ylmethoxycarbonyl)aminomethyl) benzamide [MS-275]”, for which the intra-tumoral aromatase activity result in experiment [7] is “upregulates intra-tumoral aromatase activity”. In experiment [8], the “expression of ERα, aromatase and androgen receptor in tumors” value is recorded as “upregulates”. Moreover, the IC50 in experiment [2] worked out at 6.82e-05 µM; in experiment [3] it was 0.0281 µM; in [1] (MDA-MB-231 cells, single agent, read-out: IC50, growth inhibition), 0.0817 µM. Further, the “growth of MDA-MB-231 xenografts” value in [9] (5x weekly dosing) is recorded as “inhibits growth of MDA-MB-231 xenografts”. Further, the “effectiveness by route of administration” value in experiment [9] (oral versus other route) is on record as “more effective when given orally”. Moreover, in [9] (ovariectomized mice, bioassay for estrogenic/antiestrogenic effects), the uterine weight entry is “does not affect the uterine weight”. Further, the “protein expression of ERα up-regulated” value in experiment [6] was found to be 8 fold. The “expression of aromatase up-regulated” value in [4] (10 nM) is 2.6 fold. The growth inhibitory effect entry in experiment [1] (MDA-MB-231 cells, single agent) is listed as “significantly inhibited”. Besides, the “aromatase activity after pre-treatment” value in experiment [5] was “upregulated”. In addition, in experiment [5] (then 1β-3H-androstenedione 18 hours, basal 3.02), the aromatase activity was 15.193 pmoles/μg of protein/hour.

On to `CC(=O)Nc1ccc(C(=O)Nc2ccccc2N)cc1` [CJ-994, 4-acetylamino-N-(2′-aminophenyl)-benzamide], for which the IC50 in experiment [2] (Homo sapiens, SK-BR-3) came to 8.52 µM; in [3] (Homo sapiens, Hs-578T), 0.122 µM; in experiment [1] (setting [10]), 97.8 µM.

Take `CC/C(=C(\c1ccccc1)c1ccc(OCCN(C)C)cc1)c1ccccc1` [tamoxifen]: the growth inhibitory effect entry in experiment [1] (MDA-MB-231 cells, single agent) is listed as “refractory”.

The record behind these values is US8110550B2, “HDAC inhibitors and hormone targeted drugs for the treatment of cancer” (University of Maryland, Baltimore, priority 2007, dated 2012).
